Series [1] in a line: molar enthalpy of vaporization or sublimation. The note with it: 298.15 K, Static calorimetry.
The conditions of series [2]: Crystal; DTA.
Series [3] is described as follows: Molar enthalpy of transition or fusion. The conditions noted are these: Crystal; DSC.

Numbers after ± are expanded uncertainties.

For the molecule `N[C@H]1CC[C@@H](N)CC1` [cis-1,4-cyclohexanediamine], the molar enthalpy in series [1] (Liquid) was determined as 14.9 ± 0.454 kcal/mol.

Take `N[C@H]1CC[C@H](N)CC1` [trans-1,4-cyclohexanediamine]: the Normal melting temperature in series [2] was determined as 69.0 ± 0.5 °C. Besides, the “Molar enthalpy of transition or fusion” value in series [3] turned out to be 6.45 ± 0.167 kcal/mol. Besides, the molar enthalpy in series [1] (Crystal) is 25.1 ± 0.382 kcal/mol.
